Results from patent publication US20040110826A1, “Receptor Antagonists” (priority 2001, published 2004).

Molecular target: T1, α2C-adrenoceptor (Homo sapiens, UniProt P18825)
T1 sequence (P18825 1-462): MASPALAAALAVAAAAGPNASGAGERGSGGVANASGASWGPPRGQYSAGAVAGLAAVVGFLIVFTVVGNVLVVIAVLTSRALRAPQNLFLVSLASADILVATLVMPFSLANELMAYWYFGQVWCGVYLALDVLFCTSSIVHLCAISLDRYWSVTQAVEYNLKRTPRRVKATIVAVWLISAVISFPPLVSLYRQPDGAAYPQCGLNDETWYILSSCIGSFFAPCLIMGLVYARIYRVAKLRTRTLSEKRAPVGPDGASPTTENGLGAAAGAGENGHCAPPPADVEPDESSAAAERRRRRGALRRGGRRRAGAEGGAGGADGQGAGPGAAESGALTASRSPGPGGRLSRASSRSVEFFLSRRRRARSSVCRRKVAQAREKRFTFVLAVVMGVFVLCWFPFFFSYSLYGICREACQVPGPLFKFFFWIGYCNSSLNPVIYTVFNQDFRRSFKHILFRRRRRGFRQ
Test: α2c-Adrenoceptor binding test (3H-MK-912 binding, HepG2 cell membrane fraction)
Set-up: the membrane fraction of the cultured cells was used; endogenous in cells; host or cells: HepG2 (human hepatoma) cell membrane fraction
Conditions: 0.5 h, test compound 10^−7 mol/l, read-out: Inhibition ratio (%) against α2c-adrenoceptor binding
Description: Adrenoceptor Binding Activity (α2c-Adrenoceptor Binding Test)
This test was carried out according to the method of Schaak et al. [Journal of Pharmacological Experimental Therapeutics, Vol. 281, p. 983 (1997)] as slightly modified.
Human hepatocyto HepG2 cells were cultured in DMEM medium (GIBCO BRL) containing 10% fetal bovine serum (FBS), 100 units/ml penicillin and 100 μg/ml streptomycin, and the membrane fraction of the cultured cells was used. The cultured cells were washed with phosphate-buffered saline (PBS), then scraped with a scraper and recovered by centrifugation at 800 rpm for 5 minutes. To the cells was added a buffer [50 mmol/l tris(hydroxymethyl)aminomethane: Tris, 5 mmol/l ethylenediamine tetraacetic acid (EDTA), pH 7.5], and the cells were suspended using Polytron Homogenizer (Kinematica), followed by centrifugation at 39,000×g for 10 minutes. The precipitate thus obtained was re-suspended in the same amount of the buffer, and the cell suspension was obtained by centrifugation and removing the supernatant in a similar manner.
To 100 μl of the cell suspension were added 80 μl of tritium-labeled MK-912 (methyl-^3H: 2.89 TBq/mmol; New England Nuclear) (final concentration: 1.0 nmol/l) and 20 μl of a test compound. The mixture was allowed to stand at 25° C. for 30 minutes and then rapidly filtered by suction through a glass fiber filter treated with 0.3% polyethyleneimine (GF/C; Whatman). The filter was immediately washed 3 times with 200 μl of an ice-cooled buffer and transferred to a vial. A liquid scintillator (ULTIMA GOLD; Packard) was added thereto and the radioactivity was measured with a liquid scintillation counter (Packard).
The inhibition ratio of the test compound against the α2C-adrenoceptor binding (^3H-MK-912 binding) was calculated using the following equation.
Inhibition ratio (%)={1−(amount of the binding in the presence of the test compound−amount of the nonspecific binding)/(amount of the total binding−amount of the nonspecific binding)}×100
(Note) Amount of the total binding means the amount of radioactivity of ^3H-MK-912 bound in the absence of the test compound. Amount of the nonspecific binding means the amount of radioactivity of ^3H-MK-912 bound in the presence of 10 μmol/l Yohimbine (Sigma). Amount of the binding in the presence of the test compound means the amount of radioactivity of ^3H-MK-912 bound in the presence of varied concentrations of the test compound.

| SMILES | inhibition at 0.1 µM [%] |
| --- | --- |
| C1=C(CN2CCc3ccccc3C2)c2nc(-c3ccco3)nn2C2=NCCN12 [Compound 491, 2-(2-Furyl)-4-(1,2,3,4-tetrahydroisoquinolin-2-ylmethyl)-6,7-dihydro-1,3,5a,8,8b-pentaaza-as-indacene] | 74 |
| COc1cc2c(cc1OC)CN(Cc1cnc(NCCCO)n3nc(-c4ccco4)nc13)CC2 [Compound 182, 8-(6,7-Dimethoxy-1,2,3,4-tetrahydroisoquinolin-2-ylmethyl)-2-(2-furyl)-5-(3-hydroxypropylamino)[1,2,4]triazolo[1,5-c]pyrimidine] | 72 |
| Nc1ncc(CNCC2COc3ccccc3O2)c2nc(-c3ccco3)nn12 (stereo not drawn) [Compound 213, 5-Amino-8-(1,4-benzodioxan-2-ylmethylaminomethyl)-2-(2-furyl)[1,2,4]triazolo[1,5-c]pyrimidine] | 96 |
| COc1ccc2c(c1)CCN(Cc1cnc(N)n3nc(-c4ccco4)nc13)C2 [Compound 89, 5-Amino-2-(2-furyl)-8-(6-methoxy-1,2,3,4-tetrahydroisoquinolin-2-ylmethyl)[1,2,4]triazolo[1,5-c]pyrimidine] | 86 |
| Nc1ncc(CN2CCN(c3ccccc3)CC2)c2nc(-c3cccnc3)nn12 [Compound 144, 5-Amino-8-(4-phenylpiperazin-1-ylmethyl)-2-(3-pyridyl)[1,2,4]triazolo[1,5-c]pyrimidine] | 75 |
| COCCNc1ncc(CN2CCc3ccccc3C2)c2nc(-c3ccco3)nn12 [Compound 127, 2-(2-Furyl)-5-(2-methoxyethylamino)-8-(1,2,3,4-tetrahydroisoquinolin-2-ylmethyl)[1,2,4]triazolo[1,5-c]pyrimidine] | 68 |
| CN(Cc1ccccc1)c1ncc(CN2CCN(c3ccccc3F)CC2)c2nc(-c3ccco3)nn12 [Compound 370, 8-[4-(2-Fluorophenyl)piperazin-1-ylmethyl]-2-(2-furyl)-5-(N-methylbenzylamino)[1,2,4]triazolo[1,5-c]pyrimidine] | 91 |
| Nc1ncc(CN2CCN(c3ccccc3)CC2)c2nc(C3CCCCC3)nn12 [Compound 166, 5-Amino-2-cyclohexyl-8-(4-phenylpiperazin-1-ylmethyl)[1,2,4]triazolo[1,5-c]pyrimidine] | 84 |
| CSc1ncc(CN2CCc3ccccc3C2)c2nc(-c3ccco3)nn12 [Compound 452, 2-(2-Furyl)-5-methylthio-8-(1,2,3,4-tetrahydroisoquinolin-2-ylmethyl)[1,2,4]triazolo[1,5-c]pyrimidine] | 58 |

The next lines start with the values.

| inhibition at 0.1 µM [%] | SMILES |
| --- | --- |
| 92 | Cc1ccccc1N1CCN(Cc2cnc(N)n3nc(-c4ccco4)nc23)CC1 [Compound 55, 5-Amino-2-(2-furyl)-8-[4-(2-methylphenyl)piperazin-1-ylmethyl][1,2,4]triazolo[1,5-c]pyrimidine] |
| 96 | Nc1ncc(CN2CCc3ccccc3C2)c2nc(-c3ccco3)nn12 [Compound 19, 5-Amino-2-(2-furyl)-8-(1,2,3,4-tetrahydroisoquinolin-2-ylmethyl)[1,2,4]triazolo[1,5-c]pyrimidine] |
| 83 | Nc1ncc(CN2CCC(c3ccccc3)CC2)c2nc(-c3ccco3)nn12 [Compound 203, 5-Amino-2-(2-furyl)-8-(4-phenylpiperidinomethyl)[1,2,4]triazolo[1,5-c]pyrimidine] |
| 65 | N#Cc1ccccc1N1CCN(Cc2cnc(N)n3nc(-c4ccco4)nc23)CC1 [Compound 59, 5-Amino-8-[4-(2-cyanophenyl)piperazin-1-ylmethyl]-2-(2-furyl)[1,2,4]triazolo[1,5-c]pyrimidine] |
| 88 | Nc1ncc(CN2CCN(c3ccccc3F)CC2)c2nc(-c3ccco3)nn12 [Compound 45, 5-Amino-8-[4-(2-fluorophenyl)piperazin-1-ylmethyl]-2-(2-furyl)[1,2,4]triazolo[1,5-c]pyrimidine] |
| 87 | Cc1ccc2c(c1)CN(Cc1cnc(N)n3nc(-c4ccco4)nc13)CC2 [Compound 195, 5-Amino-2-(2-furyl)-8-(7-methyl-1,2,3,4-tetrahydroisoquinolin-2-ylmethyl)[1,2,4]triazolo[1,5-c]pyrimidine] |
